*1 amine or outer side, *2 acyl side, *3 side chain or, on linkers, in order; H or OH if unused. Where a SMILES comes first, the peptide text is derived from it. [ ]: non-standard residue; d: D form. dAla(ψthiazole) = C[C@@H](N[*:1])c1nc(C(=O)[*:2])cs1; Trp(4-OMe) = COc1cccc2[nH]cc(C[C@H](N)C(=O)O)c12; dAbu = CC[C@@H](N)C(=O)O; Dha = C=C(N)C(=O)O; Sar = CNCC(=O)O
What was measured:
B. multivorans [1] = test: Broth microdilution susceptibility to argyrin B, B. multivorans strains; format: cell-based
B. multivorans [2] = test: Resistant mutant selection, B. multivorans; format: cell-based; conditions: Mueller-Hinton agar, 4 or 16 µg/ml argyrin B
Method: Resistance frequencies were calculated as the number of CFU (mutants) on drug containing plates divided by the number of CFU plated. Whole genome sequencing was done as described previously. The fusA1 gene from P. aeruginosa was generated for sequencing in two parts, using primer pairs PAEFF1/PAEFR1: […]/[…] and EFF2/EFR1: […]/[…]. The fusA1 gene from B. multivorans was generated as a single band using BCEFGF1/BCEFGR1: […]/[…]. Nucleotide sequencing of the products was done by Agencourt (Beverly MA).

[3] = tested on: recombinant human mEF-G1 WT; test: Biacore binding, human mEF-G1 WT; conditions: 10, 20, 40 µM, HBS-P+ pH 7.4, 4% DMSO
Text: GFM1 encoding the active site of EF-G1 (residues 36–751) was PCR amplified from pDONR221 constructs using primers (GGGGACAAGTTTGTACAAAAAAGCAGGCTTAATGTCTTCATCAGGGGTGATT, GGGGACCACTTTGTACAAGAAAGCTGGGTATTAGTTCTTGGCTTTTCC). P. aeroginosa fusA1 encoding full-length EF-G was PCR amplified from pET28a-PaEFG-Nhis using primers (GGGGACCACTTTGTACAAGAAAGCTGGGTATTATCAACCTTGTTTTTT, GGGGACAAGTTTGTACAAAAAAGCAGGCTTAATGGCCCGTACTACACCC). Purified PCR products were cloned into the pDONR221 vector using Gateway cloning and BP Clonase II (Invitrogen), shuttled into an E.coli protein expression vector for N-terminal tagging (Avitag-His6 vector) using LR Clonase II (Invitrogen), and verified by sequencing. Avitag-His6-hEF-G1 and Avitag-His6-PaEF-G constructs were transformed into BL21-AI cells (Invitrogen) and isolated single colonies were used to inoculate 5 ml cultures which were grown overnight at 37°C with shaking. […]. Briefly, protein was captured on column using binding buffer (50 mM Tris; pH 7.5, 300 mM NaCl, 20 mM imidazole, 10% glycerol), washed extensively with washing buffer (50 mM Tris; pH 7.5, 500 mM NaCl, 30 mM imidazole, 10% glycerol), and then eluted with elution buffer (50 mM Tris; pH 7.5, 500 mM NaCl, 250 mM imidazole, 10% glycerol). […]

C=C1NC(=O)CN(C)C(=O)CNC(=O)[C@H](Cc2c[nH]c3cccc(OC)c23)NC(=O)[C@H](Cc2c[nH]c3ccccc23)NC(=O)c2csc(n2)[C@@H](C)NC(=O)[C@@H](CC)NC1=O [argyrin B] (cyclo([dAbu][dAla(ψthiazole)]W[Trp(4-OMe)]G[Sar][Dha]))
Susceptibility to argyrin B (B. multivorans [1]; B. multivorans CDA0079 (FusA1 P484R)): >32 µg/mL | Susceptibility to argyrin B (B. multivorans [1]; B. multivorans CDA0080 (FusA1 S415L)): >32 µg/mL | Susceptibility to argyrin B (B. multivorans [1]; B. multivorans CDA0093 (FusA1 S415W)): >32 µg/mL | Susceptibility to argyrin B (B. multivorans [1]; B. multivorans CDA0094 (FusA1 L656P)): >32 µg/mL | Susceptibility to argyrin B (B. multivorans [1]; B. multivorans NB49004 (clinical isolate)): 1 µg/mL | frequency of argyrin B resistant mutants (B. multivorans [2]): 10^−9–10^−8 | Binding to human mEF-G1 (in words) [3]: still bound

From paper PMC3438169 (PLoS ONE, 2012)
